Measurements published in patent publication US6809096B1, “Phenanthroline-7-one derivatives and their therapeutic uses” (Laboratoire L. Lafon, priority 1999, dated 2004).

Experiments:
[1] = tested on: 12 human cancer cell lines (U-373MG, U-87MG, SW1088, A549, A-427, HCT-15, LoVo, T-47D, MCF7, J82, T24, PC-3); test: Cytotoxic activity on tumour cell lines in culture (MTT test); format: cell-based; conditions: mean IC50 calculated from the individual cytotoxic activities on each of the 12 tumour lines, 72 hours incubation
Method: 1—Cytotoxic Activity on Tumour Cell Lines in Culture (MTT Test)
The influence of the compounds of formula (I) and of (Ia) on tumour cells was evaluated using the MTT calorimetric test (T. Mosman, J. Immunol. Methods, 1983; 65: 55-63, J. Carmichael et al., Cancer Res. 1987; 47: 936-942).
The principle of the MTT test is based on the mitochondrial reduction by metabolically active alive cells of the yellow-coloured product MTT (3-(4,5-dimethylthiazol-2-yl)-2,5-diphenyltetrazolium bromide) to a blue-coloured product, formazan. The amount of formazan thus obtained is directly proportional to the amount of live cells present in the culture well or wells. This amount of formazan is measured by spectrophotometry.
The cell lines are maintained in monolayer culture at 37° C. in stoppered culture dishes containing 25 MM HEPES MEM (Minimum Essential Medium) base medium. This medium is well suited to the growth of a range of varied diploid or primary mammalian cells. This medium is subsequently supplemented: […]
with an amount of 5% of FCS (Foetal Calf Serum) decomplemented at 56° C. for 1 hour, with 0.6 mg/ml of L-glutamine, with 200 IU/ml of penicillin, with 200 μg/ml of streptomycin, with 0.1 mg/ml of gentamicin.
The 12 human cancer cell lines which were used were obtained from the American Type Culture Collection (ATCC, Rockville, Md., USA). These 12 cell lines are:
U-373MG (ATCC code: HTB-17) and U-87MG (ATCC code: HTB-14), which are two glioblastomas, SW1088 (ATCC code: HTB-12) which is an astrocytoma, A549 (ATCC code: CCL-185) and A-427 (ATCC code: HTB-53), which are two non-small-cell lung cancers, HCT-15 (ATCC code: CCL-225) and LoVo (ATCC code: CCL-229), which are two colorectal cancers, T-47D (ATCC code: HTB-133) and MCF7 (ATCC code: HTB-22), which are two breast cancers, J82 (ATCC code: HTB-1) and T24 (ATCC code: […]), which are two bladder cancers, PC-3 (ATCC code: CRL-1435), which is a prostate cancer.
Experimentally: 100 μl of a cell suspension comprising 20 000 to 50 000 (depending on the cell type used) cells/ml of culture medium are inoculated in flat-bottomed 96-well multi-well plates and are incubated at 37° C. under an atmosphere comprising 5% of CO2 and 70% humidity. After incubating for 24 hours, the culture medium is replaced with 100 μl of fresh medium comprising either the various test compounds at concentrations varying from 10^−5 to 10^−10 M of the solvent used to dissolve the -test products (control condition). After incubating for 72 hours under the above conditions, the culture medium is replaced with 100 μl of a yellowish solution of MTT dissolved, in a proportion of 1 mg/ml, in RPMI 1640. The microplates are reincubated for 3 hours at 37° C. and then centrifuged for 10 minutes at 400 g. The yellowish MTT solution is removed and the blue formazan crystals formed at the cellular level are dissolved in 100 μl of DMSO. The microplates are subsequently agitated for 5 minutes. The intensity of the resulting blue coloration, and thus of the conversion of the yellow MTT product into blue formazan by the cells which are still alive at the end of the experiment, is quantified by spectrophotometry using a device of DYNATECH IMOASSAY SYSTEM type at wavelengths of 570 nm and 630 nm corresponding respectively to the maximum absorption wavelengths of formazan and to the background noise. Software built into the spectrophotometer calculates the mean optical density values and the standard deviation (Std. Dev.) and standard error of the mean (SEM) values.
The inhibitory activity on the cell growth of the compounds of formula (I) and (Ia) on the various tumour cell lines was measured in comparison with that of the natural product.

[2] = Determination of the maximum tolerated dose (MTD); conditions: mouse, in vivo, ip; B6D2F1/Jico mice, single intraperitoneal administration, survival over 14 days, doses 2.5 to 160 mg/kg; read-out: DMT (mg/kg) (Maximum Tolerated Doses)
Method: (§1) 2—Determination of the Maximum Tolerated Dose (MTD)
(§2) The evaluation of the maximum tolerated dose was carried out on B6D2F1/Jico mice aged from 4 to 6 weeks. The compounds were administered intraperitoneally at increasing doses ranging from 2.5 to 160 mg/kg. The value of the MTD (expressed in mg/kg) is determined from the observation of the survival rates of the animals over a period of 14 days after a single administration of the product under consideration. The change in the weight of the animals is also monitored over this period. When that the value of the MTD is greater than 160 mg/kg, the value of the MTD is categorized as 160 mg/kg by default.

lymphoma L 1210 = test: In vivo antitumour activity, subcutaneous lymphoma L 1210, survival (T/C); parameters: species or system mouse
Method: The model of lymophoma L 1210 is a model of L 1210 leukemia cells of mouse origin grafted subcutaneously in the mouse. They give rise, in 100% of cases, to a rapid-growth subcutaneous solid tumour (L 1210 s.c.).
When the MTD value of a product was determined, its in vivo antitumour activity was characterized at the MTD/2, MTD/4 and MTD/8 doses on the models of mammary adenocarcinoma of mouse origin HS-MXT and of mouse mammary carcinoma HI-MXT and on the model of subcutaneous lymphoma L 1210.
In all the examples presented below, whatever the model, the control condition is represented by a batch of 9 or 15 mice to which is administered, for 3 consecutive weeks and at the rate of 3 administrations (Monday, Wednesday and Friday) per week, a volume of 0.2 ml of physiological saline comprising the solvent used to dissolve the various compounds of formula (I) and (Ia) used.
ii)—The survival rate of the mice is calculated in the form or a ratio T/C, where: [formula]
This ratio represents the mean survival time of the […] of the batch of treated mice with respect to the mean survival time of the median mouse of the batch of control mice. Thus, a molecule induces a significant (P<0.05) increase in the survival of the animals when the T/C index exceeds 130%. On the other hand, it has a toxic effect when this T/C value is less than 70%. […]

B6D2F1/Jico mice = test: Determination of the maximum tolerated dose (MTD); conditions: mouse, in vivo, ip
Method: as §1, §2

## O=C1c2cccnc2-c2nccc3ccnc1c23 [CRL 8293, 7H-Pyrido[4,3,2-de][1,10]phenanthroline-7-one]
[1]; Homo sapiens
  IC50: 1250 nM
[2]
  MTD at 14 days: 10 mg/kg

## O=C1c2ncccc2-c2nccc3ccnc1c23 [CRL 8294, 7H-Pyrido[4,3,2-de][1,7phenanthroline-7-one]
Lymphoma L 1210; subcutaneous lymphoma L 1210, vs control mice
  mean survival time of the median mouse (in words): significant extension
Lymphoma L 1210; survival ratio treated/control, L 1210 s.c., 1.25 mg/kg intraperitoneally, 3 injections per week for 3 weeks from D7
  T/C (expressed a %): 136%
[1]
  IC50: 1450 nM
B6D2F1/Jico mice
  DMT (mg/kg) (Maximum Tolerated Doses): 10 mg/kg
